Results on 28 compounds are retold here after patent publication US9309242B2, “Substituted pyrido[2,3-b]pyrazines as FGFR kinase inhibitors” (priority 2011, dated 2016).

In one data set the target is FGFR2 (h) (Homo sapiens, UniProt P21802). Description: FGFR2 (enzymatic assay), TR-FRET. To be noted: enzymatic assay, read-out: FGFR 2 pIC50 (converted). Type of data set: biochemical. In outline:
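Compound (1% DMSO final) was combined with FGFR2 (h), 150 ng/ml, plus 0.4 μM ATP and 500 nM biotin-Flt3 in Mn2+-containing HEPES buffer at pH 7.5.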
For orientation: Time-resolved FRET reads energy transfer from a long-lived donor to a nearby acceptor.

Data set [1] concerns the target T1, Ba/F3-KDR-transfected cells (Homo sapiens, UniProt P35968).
T1 construct: BAF3-KDR (MIN IL3) pIC50; other: minus IL3
Description: Ba/F3-KDR (minus IL3) cellular proliferation assay, Alamar Blue. Type of data set: cell-based. Put shortly:
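Proliferation is measured as Alamar Blue relative fluorescence units following 24 h compound treatment of 20000 cells per well in 10% FBS medium. The IL3-supplemented run serves as a counterscreen under the same conditions.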

For data set [2], the system named is Ba/F3-FGFR3-transfected cells. Description: Ba/F3-FGFR3 (plus IL3) cellular proliferation assay, counterscreen with 10 ng/ml murine IL3. Type of data set: cell-based. The conditions noted are these: plus IL3 (10 ng/ml murine IL3, counterscreen); read-out: BAF3-FGFR3 (PLUS IL3) pIC50 (converted). In outline: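 Viability readout was resazurin reduction (ex 540/em 590 nm) after 4 h, following 24 h compound treatment at 37 °C of FGFR3-transfected Ba/F3 cells (20000/well, RPMI-1640/10% FBS). IL3-dependent counterscreen used identical conditions plus 10 ng/ml murine IL3.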
On the technique in general: The purpose of a counterscreen is to sort out artefacts and off-target activity.

[3] abbreviates: average values if tested multiple times.

Where two headings read alike, the source gives them in different places.

T1 sequence (P35968 whole entry, change not shown): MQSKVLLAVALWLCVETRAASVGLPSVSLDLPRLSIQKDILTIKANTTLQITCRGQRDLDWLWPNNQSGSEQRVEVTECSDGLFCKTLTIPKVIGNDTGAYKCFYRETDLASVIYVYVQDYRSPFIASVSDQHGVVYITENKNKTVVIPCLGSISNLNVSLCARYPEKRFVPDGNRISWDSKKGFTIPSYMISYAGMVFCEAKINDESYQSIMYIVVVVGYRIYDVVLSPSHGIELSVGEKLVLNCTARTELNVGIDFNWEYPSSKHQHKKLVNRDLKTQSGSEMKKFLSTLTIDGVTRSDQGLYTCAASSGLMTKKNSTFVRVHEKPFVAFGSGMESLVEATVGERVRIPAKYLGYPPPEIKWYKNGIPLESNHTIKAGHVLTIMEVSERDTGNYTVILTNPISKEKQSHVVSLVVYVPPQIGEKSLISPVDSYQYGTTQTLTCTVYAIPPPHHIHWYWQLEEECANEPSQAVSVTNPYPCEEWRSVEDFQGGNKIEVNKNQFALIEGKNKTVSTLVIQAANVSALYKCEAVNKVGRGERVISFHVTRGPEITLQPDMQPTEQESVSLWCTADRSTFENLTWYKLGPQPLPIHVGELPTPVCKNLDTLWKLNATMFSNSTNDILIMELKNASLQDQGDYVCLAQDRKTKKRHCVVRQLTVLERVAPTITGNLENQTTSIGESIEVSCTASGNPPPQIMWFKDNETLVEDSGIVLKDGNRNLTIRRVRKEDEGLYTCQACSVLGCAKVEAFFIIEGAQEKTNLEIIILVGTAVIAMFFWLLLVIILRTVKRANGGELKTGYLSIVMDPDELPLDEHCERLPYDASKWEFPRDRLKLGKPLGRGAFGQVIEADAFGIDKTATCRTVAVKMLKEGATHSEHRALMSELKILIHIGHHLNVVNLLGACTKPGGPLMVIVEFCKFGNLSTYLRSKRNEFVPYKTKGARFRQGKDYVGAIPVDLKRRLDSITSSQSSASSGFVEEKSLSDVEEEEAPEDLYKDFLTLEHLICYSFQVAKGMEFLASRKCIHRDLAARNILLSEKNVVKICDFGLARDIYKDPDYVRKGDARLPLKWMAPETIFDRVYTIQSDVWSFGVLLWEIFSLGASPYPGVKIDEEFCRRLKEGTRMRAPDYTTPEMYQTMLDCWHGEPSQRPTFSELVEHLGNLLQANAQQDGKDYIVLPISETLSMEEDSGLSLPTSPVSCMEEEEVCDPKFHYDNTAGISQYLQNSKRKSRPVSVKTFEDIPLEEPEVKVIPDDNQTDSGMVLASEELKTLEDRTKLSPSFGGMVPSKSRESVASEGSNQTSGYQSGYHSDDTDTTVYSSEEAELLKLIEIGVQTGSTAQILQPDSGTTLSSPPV
Chain of FGFR2 (h) (P21802 22-821): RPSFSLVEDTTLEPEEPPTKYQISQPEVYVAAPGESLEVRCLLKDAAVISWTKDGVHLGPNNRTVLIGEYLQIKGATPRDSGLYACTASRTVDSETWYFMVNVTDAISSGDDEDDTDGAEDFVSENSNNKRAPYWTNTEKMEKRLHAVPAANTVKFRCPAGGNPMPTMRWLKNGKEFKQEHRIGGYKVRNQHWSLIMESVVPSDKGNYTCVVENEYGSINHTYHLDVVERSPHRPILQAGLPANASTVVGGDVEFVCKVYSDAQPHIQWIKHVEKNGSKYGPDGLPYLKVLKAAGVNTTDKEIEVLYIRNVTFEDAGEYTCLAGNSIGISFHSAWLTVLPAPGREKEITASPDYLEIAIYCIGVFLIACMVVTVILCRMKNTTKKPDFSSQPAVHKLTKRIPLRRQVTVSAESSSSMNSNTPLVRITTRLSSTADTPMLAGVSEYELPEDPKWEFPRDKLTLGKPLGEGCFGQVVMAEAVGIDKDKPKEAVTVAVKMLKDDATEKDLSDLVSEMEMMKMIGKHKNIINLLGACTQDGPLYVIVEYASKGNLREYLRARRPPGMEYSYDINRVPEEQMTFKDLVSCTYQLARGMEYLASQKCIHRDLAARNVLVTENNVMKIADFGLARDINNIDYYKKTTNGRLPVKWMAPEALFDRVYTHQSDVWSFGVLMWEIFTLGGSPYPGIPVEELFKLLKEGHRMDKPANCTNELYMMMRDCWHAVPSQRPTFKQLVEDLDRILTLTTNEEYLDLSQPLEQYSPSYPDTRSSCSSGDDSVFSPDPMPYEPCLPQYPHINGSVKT

By melting point is commonly meant the temperature of the solid-liquid transition. For the compound `CNCCn1/c(=N/c2c(F)cccc2F)ccc2ncc(-c3cnn(C)c3)nc21` [Compound 44], the melting point came out at 80 °C. Moreover, on FGFR2 (h) (setting [3]), the IC50 was 219 nM. The “BAF3-KDR (MIN IL3) pIC50” value in data set [1] was <5. Further, the IC50 in data set [2] is > 10000 nM.
Regarding `COc1cc(OC)cc(N(CC2CCC(=O)N2)c2ccc3ncc(-c4cnn(C)c4)nc3n2)c1` (centres unmarked) [Compound 49], the melting point was determined as 182 °C. On FGFR2 (h) (setting [3]), the IC50 is 1.95 nM. Also, the “BAF3-KDR (MIN IL3) pIC50” value in data set [1] is 5.16. In addition, the IC50 in data set [2] was > 10000 nM.
The matching figures for `COc1cc(OC)c(F)c(/N=c2\ccc3ncc(-c4cnn(C)c4)nc3n2CCCN2CCCC2=O)c1F` [Compound 55]: 227 °C, 1.26 nM, 7.13 and > 10000 nM.
Compound `COc1cc(OC)c(Cl)c(/N=c2\ccc3ncc(-c4cnn(C)c4)nc3n2CC2CCC(=O)N2)c1Cl` (single isomer, unassigned) [Compound 87] gave a melting point of 160 °C. Besides, the IC50 on FGFR2 (h) (setting [3]) is 6.03 nM. Moreover, the “BAF3-KDR (MIN IL3) pIC50” value in data set [1] is 5.45. The IC50 in data set [2] is > 10000 nM.
As to `COc1cc(O)cc(N(Cc2ncc[nH]2)c2ccc3ncc(-c4cnn(C)c4)nc3n2)c1` [Compound 103], the melting point was 172 °C. For the same compound, the IC50 on FGFR2 (h) (setting [3]) is 0.741 nM. Moreover, the “BAF3-KDR (MIN IL3) pIC50” value in data set [1] was found to be 6.40. Besides, the IC50 in data set [2] was > 10000 nM.
Turning to `COCC(O)CN(c1ccc2ncc(-c3cnn(C)c3)nc2n1)c1c(F)c(OC)cc(OC)c1F` (centres unmarked) [Compound 50], the melting point was 162 to 163 °C. The IC50 at FGFR2 (h) (setting [3]) is 3.89 nM. For the same compound, in data set [1], the “BAF3-KDR (MIN IL3) pIC50” value amounted to 6.23. Also, in data set [2], the IC50 was > 10000 nM.
`COc1cc(OC)cc(N(CC2CCCCO2)c2ccc3ncc(-c4cnn(C)c4)nc3n2)c1` (centres unmarked) [Compound 129] displayed a melting point of 137 °C. Moreover, the IC50 on FGFR2 (h) is 2.4 nM. For the same compound, the “BAF3-KDR (MIN IL3) pIC50” value in data set [1] is reported as 5.33. In data set [2], the IC50 is > 10000 nM.
Regarding `COc1cc(OC)c(F)c(N(CC2CCCCO2)c2ccc3ncc(-c4cnn(C)c4)nc3n2)c1` (centres unmarked) [Compound 139], the melting point came out at 94 °C. In addition, at FGFR2 (h), the IC50 is 3.31 nM. The “BAF3-KDR (MIN IL3) pIC50” value in data set [1] was determined as 5.33. Moreover, in data set [2], the IC50 was > 10000 nM.
`COCC(O)Cn1c(=Nc2c(F)c(OC)cc(OC)c2F)ccc2ncc(-c3cnn(C)c3)nc21` (centres unmarked) [Compound 51] gave a melting point of 180 °C. The IC50 at FGFR2 (h) (setting [3]) was 1.29 nM. In data set [1], the “BAF3-KDR (MIN IL3) pIC50” value came to 5.93. Moreover, the IC50 in data set [2] was > 10000 nM.
`COc1cc(OC)cc(N(CC(O)C(F)(F)F)c2ccc3ncc(-c4cnn(C)c4)nc3n2)c1` (single isomer, unassigned) [Compound 33]: the melting point turned out to be 208 °C. On FGFR2 (h) (setting [3]), the IC50 is 2.04 nM. In addition, the “BAF3-KDR (MIN IL3) pIC50” value in data set [1] is on record as 5.26. Also, the IC50 in data set [2] is > 10000 nM.
For `COc1cc(OC)c(Cl)c(N(C[C@H]2CCC(=O)N2)c2ccc3ncc(-c4cnn(C)c4)nc3n2)c1Cl` [Compound 97], in that order: 150 °C, 6.61 nM, 5.35 and > 10000 nM.
In the case of `COc1cc(OC)c(F)c(N(Cc2c[nH]c(C)n2)c2ccc3ncc(-c4cnn(C)c4)nc3n2)c1` [Compound 137], the IC50 at FGFR2 (h) was 2.04 nM; in data set [2], > 10000 nM. Also, the “BAF3-KDR (MIN IL3) pIC50” value in data set [1] stood at 6.19.
Take `COc1cc(/N=c2\ccc3ncc(-c4cnn(C)c4)nc3n2CCCN2CCCC2=O)c(F)c(OC)c1` [Compound 119]: the results for the IC50 (at FGFR2 (h); in data set [2]) were 1.86 nM and > 3980 nM, respectively. Also, the “BAF3-KDR (MIN IL3) pIC50” value in data set [1] is listed as ~6.52.
With `COc1cc(OC)c(F)c(N(CC2CCC(=O)N2)c2ccc3ncc(-c4cnn(C)c4)nc3n2)c1` (centres unmarked) [Compound 46], the IC50 on FGFR2 (h) (setting [3]) is 2.45 nM; in data set [2], > 10000 nM. Moreover, the “BAF3-KDR (MIN IL3) pIC50” value in data set [1] is listed as 5.35.
For `COc1cc(OC)c(Cl)c(N(Cc2ncc[nH]2)c2ccc3ncc(-c4cnn(C)c4)nc3n2)c1` [Compound 42], in that order: 2.04 nM, > 10000 nM and 6.89.
Turning to `COc1cc(OC)c(F)c(N(Cc2ncc[nH]2)c2ccc3ncc(-c4cnn(Cc5ncc[nH]5)c4)nc3n2)c1` [Compound 100], the IC50 is 2.14 nM on FGFR2 (h) (setting [3]) and > 10000 nM in data set [2]. The “BAF3-KDR (MIN IL3) pIC50” value in data set [1] was found to be 5.41.
For `CNCCN(c1ccc2ncc(-c3cnn(C)c3)nc2n1)c1c(F)ccc(OC)c1Cl` [Compound 69], in that order: 4.27 nM, > 10000 nM and 5.13.
For `COc1ccc(Cl)c(/N=c2\ccc3ncc(-c4cnn(C)c4)nc3n2CC2CCC(=O)N2)c1Cl` (centres unmarked) [Compound 92], in that order: 30.2 nM, > 10000 nM and <5.
For `COc1cc(OC)c(F)c(N(CC(O)COC(C)C)c2ccc3ncc(-c4cnn(C)c4)nc3n2)c1` (single isomer, unassigned) [Compound 75], in that order: 2.63 nM, > 10000 nM and 6.16.
Take `CNCCN(c1ccc2ncc(-c3cnn(C)c3)nc2n1)c1c(Cl)c(OC)cc(OC)c1Cl` [Compound 81]: the IC50 at FGFR2 (h) (setting [3]) was 9.12 nM; in data set [2], > 10000 nM. The “BAF3-KDR (MIN IL3) pIC50” value in data set [1] stood at 5.36.
`CNCCN(c1ccc2ncc(-c3cnn(C)c3)nc2n1)c1c(F)c(O)cc(OC)c1F` [Compound 122]: the results for the IC50 (on FGFR2 (h); in data set [2]) were 3.31 nM and > 10000 nM, respectively. Besides, the “BAF3-KDR (MIN IL3) pIC50” value in data set [1] is on record as <5.
`COc1cc(OC)c(F)c(N(Cc2nc[nH]c2C)c2ccc3ncc(-c4cnn(C)c4)nc3n2)c1` [Compound 109]: the figures for the IC50 (at FGFR2 (h) (setting [3]); in data set [2]) were 2.29 nM and > 10000 nM, respectively. For the same compound, the “BAF3-KDR (MIN IL3) pIC50” value in data set [1] is on record as ~6.01.
Turning to `COc1cc(OC)c(F)c(/N=c2\ccc3ncc(-c4cnn(C)c4)nc3n2CC2CCC(=O)N2)c1F` (centres unmarked) [Compound 193], the results for the IC50 (on FGFR2 (h) (setting [3]); in data set [2]) were 0.794 nM and > 10000 nM, respectively. Further, in data set [1], the “BAF3-KDR (MIN IL3) pIC50” value is on record as 6.28.
With `COc1cc(OC)c(F)c(N(CC2COC(=O)N2)c2ccc3ncc(-c4cnn(C)c4)nc3n2)c1` (centres unmarked) [Compound 124], the IC50 was 2.75 nM on FGFR2 (h) and > 10000 nM in data set [2]. For the same compound, in data set [1], the “BAF3-KDR (MIN IL3) pIC50” value is given as 5.49.
For the compound `COc1cc(OC)c(F)c(N(Cc2cn[nH]c2)c2ccc3ncc(-c4cnn(C)c4)nc3n2)c1` [Compound 125], the IC50 at FGFR2 (h) was 0.794 nM; in data set [2] it was > 10000 nM. Besides, the “BAF3-KDR (MIN IL3) pIC50” value in data set [1] worked out at 6.21.
Take `COc1cc(OC)c(F)c(N(CCO)c2ccc3ncc(-c4cnn(C)c4)nc3n2)c1` [Compound 40]: the IC50 is 1.48 nM on FGFR2 (h) (setting [3]) and > 10000 nM in data set [2]. Besides, in data set [1], the “BAF3-KDR (MIN IL3) pIC50” value came out at 6.00.
Consider `COc1cc(OC)c(F)c(N(Cc2cc[nH]n2)c2ccc3ncc(-c4cnn(C)c4)nc3n2)c1` [Compound 118], for which the IC50 on FGFR2 (h) (setting [3]) was 1.32 nM; in data set [2] it was > 10000 nM. Also, the “BAF3-KDR (MIN IL3) pIC50” value in data set [1] is 6.60.
Regarding `CNCCn1/c(=N/c2c(Cl)ccc(OC)c2Cl)ccc2ncc(-c3cnn(C)c3)nc21` [Compound 84], the IC50 is 126 nM on FGFR2 (h) (setting [3]) and > 10000 nM in data set [2]. Also, in data set [1], the “BAF3-KDR (MIN IL3) pIC50” value is listed as <5.
